Data as given in patent publication US12522587B2, “Cancer treatments targeting cancer stem cells” (Remedy Plan, Inc., priority 2018, dated 2026).
pIC50: −log10 of the molar value. Where two headings read alike, the source gives them in different places.

Test system: AGS cells
Assay: Cell viability in AGS cells (CellTiter Glo2, 8-point dose response, 4 days)
Assay type: cell-based, human
Protocol: AGS cells were treated with DMSO (no drug control) or each compound in Table 5 in an 8-point dose response for 4 days. Cell viability was measured using CellTiter Glo2. The IC50 of each compound was determined using CDD Vault.

SMILES | pIC50 (Homo sapiens, AGS, 96 h) | pIC50 | pIC50 (Homo sapiens, 96 h)
CCC(=O)N1CCc2cc(-c3ccc(C(=O)NCc4cccnc4)cc3)c(C)cc21 (single isomer, unassigned) [Compound I-203, 4-(6-methyl-1-propionylindolin-5-yl)-N-(pyridin-3-ylmethyl)benzamide] | 5.81 |  | 
CC(=O)N1CCc2cc(-c3ccc(C(=O)NCc4cccnc4)cc3)ccc21 [Compound I-42, 4-(1-acetylindolin-5-yl)-N-(pyridin-3-ylmethyl) benzamide] | 5.42 |  | 
CCC(=O)Nc1ccc(-c2ccc(C(=O)NCc3cccnc3)cc2)cc1 [Compound I-44, 4′-propionamido-N-(pyridin-3-ylmethyl)-[1,1′-biphenyl]-4-Carboxamide] | < 4.52 |  | 
CC(=O)N1CCCc2cc(-c3ccc(C(=O)NCc4cccnc4)cc3)ccc21 [Compound I-46, 4-(1-acetyl-1,2,3,4-tetrahydroquinolin-6-yl)-N-(pyridin-3-ylmethyl)benzamide] | < 4.76 | < 4.74 | 
O=C(NCc1cccnc1)c1ccc(-c2ccc3c(c2)CCN3C(=O)CO)cc1 [Compound I-47, 4-(1-(2-hydroxyacetyl)indolin-5-yl)-N-(pyridin-3-ylmethyl)benzamide] | 5.49 |  | 
CCC(=O)N1CCc2cc(-c3ccc(S(=O)(=O)NCc4cccnc4)cc3)ccc21 [Compound I-48, 4-(1-propionylindolin-5-yl)-N-(pyridin-3-ylmethyl)benzenesulfonamide] | 5.02 |  | 
CCC(=O)N1CCc2cc(-c3ccc(C(=O)NCc4ccncc4)cc3)ccc21 [Compound I-49, 4-(1-propionylindolin-5-yl)-N-(pyridin-4-ylmethyl)benzamide] | < 4.52 |  | 
CCC(=O)N1CCc2cc(-c3cccc(C(=O)NCc4cccnc4)c3)ccc21 [Compound I-50, 3-(1-propionylindolin-5-yl)-N-(pyridin-3-ylmethyl)benzamide] | < 4.52 |  | 
CCC(=O)N1CCc2cc(-c3ccc(C(=O)NCc4cncnc4)cc3)ccc21 [Compound I-51, 4-(1-propionylindolin-5-yl)-N-(pyrimidin-5-ylmethyl)benzamide] | < 4.52 |  | 
CCC(=O)N1CCc2cc(-c3ccc(C(=O)NCc4ccnnc4)cc3)ccc21 [Compound I-52, 4-(1-propionylindolin-5-yl)-N-(pyridazin-4-ylmethyl)benzamide] | < 5.00 | < 5.10 | 
COCCN1CCc2cc(-c3ccc(C(=O)NCc4cccnc4)cc3)ccc21 [Compound I-53, 4-(1-(2-methoxyethyl)indolin-5-yl)-N-(pyridin-3-ylmethyl)benzamide] | 5.45 |  | 
CCC(=O)N1CCc2cc(-c3ccc(C(=O)NCc4cccnc4)nc3)ccc21 [Compound I-55, 5-(1-propionylindolin-5-yl)-N-(pyridin-3-ylmethyl)picolinamide] | 5.54 | 5.44 | 
CCC(=O)n1ncc2cc(-c3ccc(C(=O)NCc4cccnc4)cc3)ccc21 [Compound I-56, 4-(1-propionyl-1H-indazol-5-yl)-N-(pyridin-3-ylmethyl)benzamide] | 5.11 |  | 
CCC(=O)N1CCc2cc(-c3ccc(C(=O)NC(C)c4cccnc4)cc3)ccc21 (stereo not drawn) [Compound I-57, 4-(1-propionylindolin-5-yl)-N-(1-(pyridin-3-yl)ethyl)benzamide] | < 4.55 |  | 
CCC(=O)N1CCc2cc(-c3ccc(C(=O)NC(C)(C)c4cccnc4)cc3)ccc21 [Compound I-58, 4-(1-propionylindolin-5-yl)-N-(2-(pyridin-3-yl)propan-2-yl)benzamide] | < 4.52 |  | 
CCC(=O)N1CCc2cc(-c3ccc(C(=O)NCc4ccc(C)nc4)cc3)ccc21 [Compound I-59, N-((6-methylpyridin-3-yl)methyl)-4-(1-propionylindolin-5-yl) benzamide] | < 4.52 |  | 
CCC(=O)N1CCc2cc(-c3ccc(C(=O)NCc4ccc(C)nc4C)cc3)ccc21 [Compound I-60, N-((2,6-dimethylpyridin-3-yl)methyl)-4-(1-propionylindolin-5-yl)benzamide] | 6.46 | 6.42 | 
CCC(=O)N1CCc2cc(-c3ccc(C(=O)NCc4cccnc4C)cc3)ccc21 [Compound I-61, N-((2-methylpyridin-3-yl)methyl)-4-(1-propionylindolin-5-yl)benzamide] | < 4.52 |  | 
CCC(=O)N1CCc2cc(-c3ccc(C(=O)N(C)Cc4cccnc4)cc3)ccc21 [Compound I-62, N-methyl-4-(1-propionylindolin-5-yl)-N-(pyridin-3-ylmethyl)benzamide] |  |  | 4.53
CCC(=O)N1CCc2cc(-c3ccc(C(=O)NCC4CCCNC4)cc3)ccc21 (stereo not drawn) [Compound I-63, N-(piperidin-3-ylmethyl)-4-(1-propionylindolin-5-yl)benzamide] | < 4.52 |  | 
CCC(=O)N1CCc2cc(-c3cnc(C(=O)NCc4cccnc4)nc3)ccc21 [Compound I-65, 5-(1-propionylindolin-5-yl)-N-(pyridin-3-ylmethyl) pyrimidine-2-carboxamide] | 5.14 |  | 
CCC(=O)N1CCc2cc(-c3ncc(C(=O)NCc4cccnc4)cn3)ccc21 [Compound I-66, 2-(1-propionylindolin-5-yl)-N-(pyridin-3-ylmethyl) pyrimidine-5-carboxamide] | < 4.52 |  | 
CC(C)(O)C(=O)N1CCc2cc(-c3ccc(C(=O)NCc4cccnc4)cc3)ccc21 [Compound I-68, 4-(1-(2-hydroxy-2-methylpropanoyl)indolin-5-yl)-N-(pyridin-3-ylmethyl)benzamide] | 4.53 |  | 
CCC(=O)N1CCc2cc(-c3ccc(C(=O)NCC4CCNCC4)cc3)ccc21 [Compound I-70, N-(piperidin-4-ylmethyl)-4-(1-propionylindolin-5-yl)benzamide] | < 4.52 |  | 
CCC(=O)N1CCc2nc(-c3ccc(C(=O)NCc4cccnc4)cc3)ccc21 [Compound I-71, 4-(1-propionyl-2,3-dihydro-1H-pyrrolo[3,2-b]pyridin-5-yl)-N-(pyridin-3-ylmethyl)benzamide] | 5.36 |  | 

SMILES | pIC50 (Homo sapiens, AGS, 96 h) | pIC50 | pIC50 (Homo sapiens, 96 h)
CCC(=O)N1CCc2cc(-c3ccc(C(=O)NCc4cn[nH]c4)cc3)ccc21 [Compound I-72, N-((1H-pyrazol-4-yl)methyl)-4-(1-propionylindolin-5-yl)benzamide] | < 4.52 |  | 
CCC(=O)N1CCc2cc(-c3ccc(C(=O)NCc4cnco4)cc3)ccc21 [Compound I-73, N-(oxazol-5-ylmethyl)-4-(1-propionylindolin-5-yl)benzamide] | < 4.52 |  | 
CCC(=O)N1CCc2cc(-c3ccc(C(=O)Nc4cccnc4)cc3)ccc21 [Compound I-74] | 5.18 |  | 
CN1CCc2cc(-c3ccc(C(=O)NCc4cccnc4)cc3)ccc21 [Compound I-75, 4-(1-methylindolin-5-yl)-N-(pyridin-3-ylmethyl)benzamide] | < 4.69 |  | 
CCC(=O)n1ccc2cc(-c3ccc(C(=O)NCc4cccnc4)cc3)ccc21 [Compound I-90, 4-(1-propionyl-1H-indol-5-yl)-N-(pyridin-3-ylmethyl)benzamide] | < 4.88 |  | 
CCC(=O)N1CCc2cc(-c3ccc(C(=O)NCc4cccnc4)cc3C)ccc21 [Compound I-91, 3-methyl-4-(1-propionylindolin-5-yl)-N-(pyridin-3-ylmethyl)benzamide] | 5.69 | 5.59 | 
CCC(=O)N1CCc2cc(-c3ccc(C(=O)NCc4cccnc4)cc3OC)ccc21 [Compound I-94, 3-methoxy-4-(1-propionylindolin-5-yl)-N-(pyridin-3-ylmethyl)benzamide] | 5.10 | 5.06 | 
CCC(=O)N1CCc2cc(-c3ccc(NC(=O)Cc4cccnc4)cc3)ccc21 [Compound I-95] | < 4.52 |  | 
CCC(=O)N1CCc2cc(-c3ccc(C(=O)NCc4cccnc4)c(OC)c3)ccc21 [Compound I-96, 2-methoxy-4-(1-propionylindolin-5-yl)-N-(pyridin-3-ylmethyl)benzamide] | < 4.52 |  | 
CCC(=O)N1CCc2cc(-c3ccc(C(=O)NCc4cccnc4)cc3F)ccc21 [Compound I-97, 3-fluoro-4-(1-propionylindolin-5-yl)-N-(pyridin-3-ylmethyl) benzamide] | 5.50 |  | 
CCC(=O)N1CCc2cc(-c3ccc(C(=O)NCc4ccccc4)cc3)ccc21 [Compound I-152] | < 4.52 |  | 
CCC(=O)N1CCc2cc(-c3ccc(C(=O)NCc4ccc(OC)cc4)cc3)ccc21 [Compound I-156] | < 4.52 |  | 
CCC(=O)N1CCc2cc(-c3ccc(C(=O)NCc4ccc(C)cc4)cc3)ccc21 [Compound I-157] | < 4.52 |  | 
CCC(=O)N1CCc2cc(-c3ccc(C(=O)NC(C)c4ccccc4)cc3)ccc21 (stereo not drawn) [Compound I-160] | < 4.52 |  | 
CCC(=O)N1CCc2cc(-c3ccc(C(=O)NCc4cccc(Cl)c4)cc3)ccc21 [Compound I-168] | < 4.52 |  | 
CCC(=O)N1CCc2cc(-c3ccc(C(=O)NCc4cccc(OC)c4)cc3)ccc21 [Compound I-171] | < 4.52 |  | 
CCC(=O)N1CCc2cc(-c3ccc(C(=O)NCc4cccc(F)c4)cc3)ccc21 [Compound I-174] | < 4.52 |  | 
CC(=O)N1CCc2cc(-c3ccc(C(=O)NCc4ccccn4)cc3)ccc21 [Compound I-175] | 5.29 |  | 
CCC(=O)N1CCc2cc(-c3ccc(C(=O)NCc4ccc(Cl)cc4)cc3)ccc21 [Compound I-176] | 4.59 |  | 
CCC(=O)N1CCc2cc(-c3ccc(C(=O)NCC4CCCO4)cc3)ccc21 (stereo not drawn) [Compound I-178] | < 4.52 |  | 
CCC(=O)N1CCc2cc(-c3ccc(C(=O)NCc4ccc(F)cc4)cc3)ccc21 [Compound I-179] | < 4.52 |  | 
CCOc1ccc(CNC(=O)c2ccc(-c3ccc4c(c3)CCN4C(=O)CC)cc2)cc1 [Compound I-180] | < 4.52 |  | 
CCC(=O)N1CCc2cc(-c3ccc(C(=O)NCc4ccco4)cc3)ccc21 [Compound I-181] | < 4.52 |  | 
CCC(=O)N1CCc2cc(-c3ccc(C(=O)NCc4ccccn4)cc3)ccc21 [Compound I-185, 4-(1-propionylindolin-5-yl)-N-(pyridin-2-ylmethyl)benzamide] | 4.81 | 4.68 | 
CCC(=O)N1CCc2cc(-c3ccc(C(=O)NCC4CCCCC4)cc3)ccc21 [Compound I-186, N-(cyclohexylmethyl)-4-(1-propionylindolin-5-yl)benzamide] | < 4.52 |  | 
